How the values were obtained:
[1] = test system: E. coli K12 cells; format: cell-based
Protocol: Since culture-based methods are contingent upon the isolation of viable bacteria, the detection of E. coli following MIL-based cell extraction is influenced by the cytotoxicity of MILs. To study the effect of MILs on the growth of E. coli, a 1 mL aliquot of LB media was inoculated with 8.0×10^2±0.5×10^2 CFUs mL^−1 and spiked with approximately 10 μL of a MIL. The mixture was agitated by vortex to simulate the recovery procedure after which a 100 μL aliquot of the suspension was plated on selective agar.

[2] = Magnetic susceptibility, SQUID magnetometer; format: physicochemical
Protocol: The μeff values for each exemplary MIL were determined using a Quantum Design MPMS SQUID magnetometer following procedures similar to those previously reported. (Y. Mudryk, P. Manfrinetti, V. Smetana, J. Liu, M. L. Fornasini, A. Provino, V. K. Pecharsky, G. J. Miller and K. A. Gschneidner, J. Alloys Compd, 2013, 557, 252-260).

[3] = Viscosity, cone and plate viscometer; format: physicochemical; conditions: 23.7° C.
Protocol: Proton NMR spectra (^1H) were recorded using a Bruker 500 MHz nuclear magnetic resonance spectrometer. Solvent peaks were used as reference values for the reporting of chemical shifts. Elemental analyses were obtained using a Perkin Elmer 2100 Series II CHN/S Analyzer (Waltham, Mass., USA). Mass spectra were obtained using an Agilent 6230 TOF LC/MS (Santa Clara, Calif., USA). Viscosity measurements were obtained using a Wells/Brookfield DV1 cone and plate viscometer using a CPA-51Z cone spindle. Each MIL was dried in a vacuum oven for 48 hours at 50° C. ensuring any water or residual solvents were completely removed from the MILs. Sample volumes of 0.5 mL were used for all MILs at a temperature (23.7° C.).

[4] = 1 second vial inversion (viscosity comparison); format: physicochemical; conditions: 1 second inversion of each MIL
From the text: FIG. 2 compares the viscosities of [P66614^+]2[MnCl4^2−], [P66614^+][Ni(hfacac)3^−], and [P66614^+][Nd(hfacac)4^−] by performing a 1 second inversion of each MIL.

[5] = test system: E. coli; experiment: PCR amplification of LB back-extraction solution after MIL-based extraction
Protocol: (§1) A general schematic for the MIL-based cell extraction procedure is depicted in FIG. 10. In a 4 mL screw cap glass vial, a controlled volume (e.g., 10 μL) of MIL was added to 2 mL of diluted cell suspension and dispersed into microdroplets by vortex agitation for 15-120 s. Following the dispersive extraction, a 0.9 T magnetic field was applied to collect the cell-enriched MIL extraction phase. After the aqueous phase was decanted, the MIL was subjected to a static wash with 2 mL of deionized water to ensure that residual cell suspension was removed. The extracted E. coli was recovered from the MIL solvent by vortexing the MIL in 1 mL of LB media from 30 to 300 s. Following back-extraction, aliquots of the cell-enriched LB media were cultured on selective agar as well as analyzed by PCR.
Following the recovery of E. coli cells from the MIL extraction phase, an aliquot of the LB back-extraction solution was analyzed by PCR. […] The thermal protocol used for amplification of the MTAP gene was as follows: 5 min initial denaturation at 95° C. followed by 30 cycles of 30 s denaturation at 95° C., 45 s annealing at 54° C., and elongation for 45 s at 72° C.
After thermal cycling, the PCR products were mixed with 10 μL of bromophenol blue tracking dye solution (30% glycerol v/v) and loaded on a 1% agarose gel stained with SYBR Safe DNA gel stain. The PCR amplicon was subjected to electrophoresis at approximately 4 V cm^−1 and subsequently visualized using a transilluminator.
To improve detection limits, cells were recovered from the MIL phase using […] and a 1 μL aliquot of LB media was analyzed by PCR amplification. […] MILs as extraction media.
MIL. […] 1999; 37:2479-82). It should be noted that PCR assays are unable to distinguish between live and dead cells and, therefore, are complementary to microbiological culture for the determination of viable cells in a sample.

[6] = test system: E. coli; experiment: MIL-based extraction of viable E. coli, selective culture and colony enumeration; conditions: for visible colonies after back-extraction with LB media and culture on selective agar: aqueous solutions of 1.68×10^5 CFUs mL^−1
Protocol: For each cell extraction experiment, 2 mL of sterile LB media with 100 μg mL^−1 carbenicillin was inoculated with 0.5 μL of E. coli glycerol stock and incubated overnight at 37° C. and 225 rpm. The overnight culture was centrifuged at 2820 g for 8 min and the supernatant discarded. The cells were then vortexed for 15 s in 2 mL of deionized water and centrifuged once again at 2820 g for 8 min. Following a total of three washes, the cells were re-suspended in 1 mL of deionized water. The concentration of cells within the suspension was initially determined by measuring the optical density of the sample at 600 nm (OD600), where an OD600 equal to 1.000 represents 8×10^8 E. coli cells mL^−1. The bacterial suspension was diluted to an OD600 value of 0.021 (1.68×10^7 cells mL^−1), after which 10-fold serial dilutions were performed to yield the desired sample concentration. Since the sample concentrations were below the detection limit of the spectrophotometer, the final concentration of each sample (in CFUs mL^−1) was obtained using a plate counting method. Briefly, 15 μL of diluted cell suspension were mixed with 985 μL of LB media and vortexed for 3 min. A […] aliquot of the suspension was spread onto a selective LB agar plate with 100 μg mL^−1 carbenicillin and incubated overnight at 37° C. to obtain visible colonies.
as §1
To detect viable bacteria recovered from the MIL extraction solvent, a culture-based method selective for E. coli transformants was employed. Following MIL-based extraction, a 100 μL aliquot of the LB back-extraction solution was plated on LB agar containing 100 μg mL^−1 carbenicillin and incubated overnight at 37° C. Visible colonies were counted, tabulated, and compared to the colonies obtained for the sample prior to extraction. The enrichment factor (EF) from the MIL-based extraction was calculated by Equation 1, where CMIL is the concentration of CFUs within the MIL extraction phase and CS represents the concentration of CFUs in the bacterial suspension prior to extraction. EF=CMIL/CS Equation 1
To determine if MILs can extract viable E. coli cells, aqueous solutions of 1.68×10^5 CFUs mL^−1 were extracted with each of the seven MILs using an approach that is similar to one depicted in FIG. 10. […] [Co(hfacac)3^−] MILs with the greatest number of colonies obtained from the Ni(II)-based MIL extractions.

[7] = test system: E. coli; experiment: as above; conditions: extraction time 30 s to 300 s
[8] = test system: E. coli; experiment: Direct PCR amplification of cell-enriched MIL phase; conditions: 0.5 μL cell-enriched MIL phase directly in PCR mixture
Protocol: Nucleic acid-based methods (e.g., PCR) have become increasingly popular for the detection of pathogens in food, environmental, and clinical samples to increase sample throughput and achieve lower detection limits. […] [Co(hfacac)3^−] MIL under optimized conditions. After extraction, 0.5 μL of the cell-enriched MIL phase was directly transferred into the PCR reagent mixture and heated at 95° C. for 5 min to induce cell lysis and the release of nucleic acids into solution. […] While the direct PCR detection modality provided a rapid assay for the detection of E. coli, the method was only suitable for the detection of relatively large quantities of cells (approximately 10^7 CFUs mL^−1) in aqueous samples likely due to inhibition caused by the MIL.

[9] = Solubility of MILs in organic solvents (solvent miscibility); format: physicochemical; conditions: S with footnotes b-e: organic solvents and water, MIL to solvent ratio
From the text: Owing to their unique solvation capabilities and high thermal stability, ILs have been successfully employed in organic synthesis either as reaction media or catalysts. An evaluation of the hydrophobic MIL solubility in a wide range of organic solvents may provide a fundamental understanding into their solvent properties. This could be instrumental for designing MIL-based reaction media, where the MIL can be selectively separated from the reaction products using an external magnetic field. […] The transition-metal based […] fully miscible in all of the organic solvents except DMSO. […] However, as the polarity value of the solvent drops below 0.117, the transition-metal based MILs show decreased solubilities at a 10% (v/v) MIL to solvent ratio. […] The solubility of these MILs in many different organic solvents adds to their versatility and use in numerous applications.

Structure (SMILES) | influence on the growth of E. coli ([1]; LB media with 8.0×10^2 CFUs mL^−1, approximately 10 μL of MIL, compared to unexposed standard) | μeff ([2]; at lower temperatures) [μB] | viscosity [3] [cP] | movement down the vial [4] | amplicon after extraction of cell filtrate (cell-free DNA) [5] | E. coli concentration at which bacterial pDNA was detected by PCR ([5]; cell recovery in LB media prior to PCR, 2 mL sample) | change in EF with SOC media as back-extraction solution ([6]; 120 s back-extraction) | enrichment factor (EF) ([6]; 120 s back-extraction in LB media, 30 s extraction) | enrichment factor (EF) ([6]; MIL volume of 5 μL, cell suspension at 1.68×10^4 CFUs mL^−1) | visible colonies after back-extraction with LB media and culture on selective agar [6] | colonies with deionized water or 10 mM Tris-HCl (pH 8) as back-extraction solution ([6]; culture on selective agar) | lowest E. coli concentration detected in aqueous solution ([6]; optimized conditions, viable cells, culture on selective agar) | enrichment factor (EF) [7] | quantity of cells detectable by direct PCR [8] | Cytotoxicity to E. coli [1] | μeff, effective magnetic moment ([2]; from magnetic susceptibility data, SQUID) [μB] | Solubility [9] | Viable Bacteria ([6]; extraction of E. coli from aqueous samples, 1.68×10^5 CFUs mL^−1)
CCCCCCCCCCCCCC[P+](CCCCCC)(CCCCCC)CCCCCC.O=C(C=C([O-])C(F)(F)F)C(F)(F)F.O=C(C=C([O-])C(F)(F)F)C(F)(F)F.O=C(C=C([O-])C(F)(F)F)C(F)(F)F.[Ni+2] [MIL 3, [P66614^+] tris(hexafluoroacetylaceto)nickelate(II)] | little to no influence on the growth of E. coli | 2.8 | 927 | flow easily toward the bottom of the vial | no amplicon was detected | 1.68×10^4 CFUs mL^−1 | no change in the EF was observed | 15.4±0.8 | 44.6±5.2 | visible colonies were observed | no detectable colonies | 1.68×10^4 CFUs mL^−1 | approximately 15 |  |  |  |  | 
CCCCCCCCCCCCCC[P+](CCCCCC)(CCCCCC)CCCCCC.O=C(C=C([O-])C(F)(F)F)C(F)(F)F.O=C(C=C([O-])C(F)(F)F)C(F)(F)F.O=C(C=C([O-])C(F)(F)F)C(F)(F)F.[Co+2] [[P66614^+] [Co(hfacac)3^−]] |  |  |  |  |  |  |  |  |  | visible colonies were observed |  |  |  | approximately 10^7 CFUs mL^−1 |  |  |  | 
CCCCCCCCCCCCCC[P+](CCCCCC)(CCCCCC)CCCCCC [compound 1] |  |  | 575.8 |  |  |  |  |  |  |  |  |  |  |  | Yes | 4.3 | S^b,c,e | No

Source: patent publication US11046991B2, “Rapid preconcentration of viable bacteria using magnetic ionic liquid for PCR amplification and culture-based diagnostics” (priority 2017, dated 2021)
